Results published in patent US20100029012A1, “Method for identifying modulators of the NRF2-KEAP1-AREP pathway” (priority 2006, published 2010).

Key:
[1] = molecular target: T1, His-tagged Keap1-kelch domain polypeptide (Homo sapiens, UniProt Q14145); assay: Antibody-based binding assay, displacement of 3H-labeled Nrf2 Peptide 2; settings: Keap1-kelch domain polypeptide immobilized via anti-His tag antibody; about 1 nm to about 100 μM; FIG. 2
T1 construct: the Keap1-kelch domain polypeptide comprises amino acid residues 322 to 609 of the human Keap1 protein; made in house; host or cells: E. coli Rosetta2 BL21 pLysS, plasmid pET15b-Keap1-kelch domain
T1 sequence (Q14145 322-609): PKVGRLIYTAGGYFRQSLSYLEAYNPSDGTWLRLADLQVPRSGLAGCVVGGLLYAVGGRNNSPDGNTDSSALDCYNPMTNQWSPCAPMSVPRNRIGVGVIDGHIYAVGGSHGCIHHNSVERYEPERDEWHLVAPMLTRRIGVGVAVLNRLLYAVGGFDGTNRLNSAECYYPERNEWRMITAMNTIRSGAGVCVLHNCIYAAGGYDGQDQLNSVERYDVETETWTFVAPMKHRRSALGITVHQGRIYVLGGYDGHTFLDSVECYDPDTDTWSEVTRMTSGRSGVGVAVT
Excerpt: This example provides a protocol for an antibody-based binding assay for identifying activators of the Nrf2-Keap1 system. Because Keap1 protein's or Keap1-kelch domain polypeptide's binding to the assay plate surface is not dependent on divalent metal cations such as nickel, the antibody-based assay is also useful for determining whether the competitive effect observed in an ion-based assay was a result of the analyte competing with binding of the labeled Peptide 2 with the Keap1-kelch domain or with the binding of the Keap1 protein or Keap1-kelch domain polypeptide with divalent cations on the plate. In general, the assay is performed as follows.
One μg/mL of mouse-derived anti-His tag antibody (Catalog No. 35370, Quiagen, Valencia, Calif.) is added to anti-mouse IgG-coated white plates (Catalog No. 15234, Pierce Biotechnology, Inc.) and incubated at room temperature for two hours. The plate is then washed with four chamber volumes of PBS to remove any excess antibody.
Controls include […] unlabeled Nrf2 Peptide 2 and 0.5% DMSO.
During the last 15 minutes of the 4° C. incubation, one L of cold PBS-T is added to the Liquid 1 wash bottle of the EMBLA 96/384 plate washer (Molecular Devices Corporation, Sunnyvale, Calif.). The instrument is primed using program ‘A1’ a minimum of three times. […]

[2] = tested on: His tagged Green Fluorescent Protein (GFP); settings: relative to DMSO; FIG. 3
Description: In this assay, His tagged Green Fluorescent Protein (GFP) retention on a divalent metal cation surface is monitored in the presence of analytes.
Stock solutions containing analytes at various concentrations or 500 nL DMSO and controls are transferred into the wells of a CHOICECOAT metal chelate white 384 well plates (Catalog No. NC15140, Pierce Biotechnology, Inc.). The volume is 500 nL per well. Controls include 100 μM unlabeled Peptide 2 and 0.5% DMSO.
An assay solution containing one μg His tagged GFP protein in PBS (per well) is prepared and 50 μL of this assay solution is dispensed into each well of the 384 well plates. The plates are covered and incubated at room temperature for two hours. Following the room temperature incubation, the plates are cooled by incubating in a 4° C. refrigerator for one hour. The plates are then washed by aspirating the well, adding 80 uL of PBS-T, aspirating the well, adding 80 uL of PBS-T, and aspirating the well.

[3] = molecular target: T2, recombinant human His-tagged Keap1-kelch domain polypeptide (human, UniProt Q14145 322-609); assay: method not stated; binding affinity for the kelch domain
T2 construct: domain: kelch domain; Expressed in E. coli from pET15b between NdeI and BamHI; also called recombinant Keap1-kelch domain; kelch domain of the Keap1 protein; not shown: N-terminal six-histidine tag from vector pET15b
T2 sequence (Q14145 322-609): as above

binding affinity [3] [nM] | Molecule | competition with labeled Peptide 2 for binding to the kelch domain (result in words) [1] | percent inhibition of binding of the GFP to the nickel on the surface of the plate [2] [%]
 | CC[C@H](C)[C@H](NC(=O)[C@@H]1CCCN1C(=O)[C@H](CC(C)C)NC(=O)[C@H](Cc1ccccc1)NC(=O)[C@H](CCC(=O)O)NC(=O)CNC(=O)[C@@H](NC(=O)[C@H](CCC(=O)O)NC(=O)[C@H](CCC(=O)O)NC(=O)[C@H](CC(=O)O)NC(=O)[C@H](CC(C)C)NC(=O)[C@H](CCC(N)=O)NC(=O)[C@@H](N)CC(C)C)[C@@H](C)O)C(=O)N[C@@H](CCC(N)=O)C(=O)O [Peptide 2, NH2-LQLDEETGEFLPIQ-OH] | result from this assay expected for an analyte that competes | 0
~397 | LLVDGETGESFPAQ [Nrf1 peptide LLVDGETGESFPAQ] |  | 
~626 | RKRNVESGEEELAS [Pgam5 peptide RKRNVESGEEELAS] |  | 
